Literature values in patent US8962595B2, “Compositions of small molecule therapeutics” (Nexmed Holdings, Inc., priority 2010, dated 2015).

Details: water

- Sol. H2O (reported solubility from the literature): 3000 µg/mL
Structure (SMILES): NS(=O)(=O)c1cc2c(cc1Cl)N=CNS2(=O)=O [Chlorothiazide, chlorothiazide]
